Reference: the NIST ThermoML archive (doi:10.1021/je200327s)
Numbers after ± are expanded uncertainties.

Tests used:
[1] = 101.3 kPa, Liquid, Vibrating tube method
[2] = xn = mol fraction of the nth substance listed; conditions: 101 kPa, Liquid, Vibrating tube method

CC(C)CC(C)(C)C [2,2,4-trimethylpentane]
mass density ([1]; 298.2 K): 687.721 ± 0.28 kg/m3 | mass density ([1]; 313.2 K): 675.225 ± 0.29 kg/m3

C1CCCCC1 [cyclohexane]
mass density ([1]; 298.2 K): 773.849 ± 0.27 kg/m3

CCCCCCCCCC [decane]
mass density ([1]; 298.2 K): 726.1 ± 0.4 kg/m3 | mass density ([1]; 313.2 K): 714.726 ± 0.35 kg/m3

c1ccc2c(c1)sc1ccccc12 [dibenzothiophene] + CCCCCCCCCCC
mass density ([2]; 298.2 K, x1 = 0.0035): 738.065 ± 0.35 kg/m3 | mass density ([2]; 298.2 K, x1 = 0.0069): 739.235 ± 0.35 kg/m3 | mass density ([2]; 298.2 K, x1 = 0.0087): 739.863 ± 0.35 kg/m3 | mass density ([2]; 298.2 K, x1 = 0.0186): 743.359 ± 0.35 kg/m3 | mass density ([2]; 298.2 K, x1 = 0.0286): 746.909 ± 0.35 kg/m3 | mass density ([2]; 298.2 K, x1 = 0.0342): 748.935 ± 0.35 kg/m3 | mass density ([2]; 313.2 K, x1 = 0.0035): 726.939 ± 0.35 kg/m3 | mass density ([2]; 313.2 K, x1 = 0.0069): 728.106 ± 0.35 kg/m3 | mass density ([2]; 313.2 K, x1 = 0.0087): 728.741 ± 0.35 kg/m3 | mass density ([2]; 313.2 K, x1 = 0.0186): 732.22 ± 0.35 kg/m3 | mass density ([2]; 313.2 K, x1 = 0.0263): 735.021 ± 0.35 kg/m3 | mass density ([2]; 313.2 K, x1 = 0.0286): 735.767 ± 0.35 kg/m3 | mass density ([2]; 313.2 K, x1 = 0.0342): 737.778 ± 0.35 kg/m3 | mass density ([2]; 313.2 K, x1 = 0.0436): 741.11 ± 0.36 kg/m3

c1ccc2c(c1)sc1ccccc12 [dibenzothiophene] + CCCCCCCCCCCC
mass density ([2]; 298.2 K, x1 = 0.0074): 747.569 ± 0.24 kg/m3 | mass density ([2]; 298.2 K, x1 = 0.0094): 748.147 ± 0.24 kg/m3 | mass density ([2]; 298.2 K, x1 = 0.0191): 751.276 ± 0.24 kg/m3 | mass density ([2]; 298.2 K, x1 = 0.0285): 754.322 ± 0.24 kg/m3 | mass density ([2]; 298.2 K, x1 = 0.0378): 757.354 ± 0.24 kg/m3 | mass density ([2]; 313.2 K, x1 = 0.0037): 735.448 ± 0.25 kg/m3 | mass density ([2]; 313.2 K, x1 = 0.0046): 735.694 ± 0.24 kg/m3 | mass density ([2]; 313.2 K, x1 = 0.0074): 736.633 ± 0.24 kg/m3 | mass density ([2]; 313.2 K, x1 = 0.0098): 737.333 ± 0.24 kg/m3 | mass density ([2]; 313.2 K, x1 = 0.0142): 738.752 ± 0.24 kg/m3 | mass density ([2]; 313.2 K, x1 = 0.0187): 740.177 ± 0.24 kg/m3 | mass density ([2]; 313.2 K, x1 = 0.024): 741.874 ± 0.25 kg/m3 | mass density ([2]; 313.2 K, x1 = 0.0305): 743.953 ± 0.25 kg/m3 | mass density ([2]; 313.2 K, x1 = 0.0325): 744.662 ± 0.25 kg/m3 | mass density ([2]; 313.2 K, x1 = 0.0372): 746.081 ± 0.25 kg/m3 | mass density ([2]; 313.2 K, x1 = 0.0651): 755.317 ± 0.25 kg/m3

CCCCCCCCCCCC [dodecane]
mass density ([1]; 298.2 K): 745.15 ± 0.24 kg/m3 | mass density ([1]; 313.2 K): 734.325 ± 0.24 kg/m3

CCCCCCC [heptane]
mass density ([1]; 298.2 K): 679.857 ± 0.36 kg/m3

CCCCCC [hexane]
mass density ([1]; 298.2 K): 655.039 ± 2.1 kg/m3

CCCCCCCCC [nonane]
mass density ([1]; 298.2 K): 713.938 ± 0.36 kg/m3

CCCCCCCC [octane]
mass density ([1]; 298.2 K): 698.569 ± 1.4 kg/m3 | mass density ([1]; 313.2 K): 686.365 ± 1.3 kg/m3

CCCCC [pentane]
mass density ([1]; 298.2 K): 624.932 ± 0.3 kg/m3

CCCCCCCCCCC [undecane]
mass density ([1]; 298.2 K): 736.786 ± 0.34 kg/m3 | mass density ([1]; 313.2 K): 725.693 ± 0.35 kg/m3
